These results are taken from US8697877B2, “Oxyindole derivatives with motilin receptor agonistic activity” (RaQualia Pharma Inc., priority 2009, dated 2014).

pEC50: −log10 of the molar value. Like-named read-outs stand apart in the source and are kept apart here.

The assay concerns the target T1, human motilin receptor (GPR38) (Homo sapiens, UniProt O43193).
T1 construct: expressed in transfected cells; host or cells: CHO-K1
Put plainly: GPR38 (Motilin Receptor) Functional Assay, NFAT-beta-lactamase reporter in CHO-K1 cells. The assay is classed as cell-based. Conditions: for EC50: ED50 (nM), Table 15, functional activity toward GPR38 (motilin receptor), (S) versus (R) amino acid linker. The protocol:
The potencies and efficacies of the compounds of this invention for GPR38 can be determined by reporter assay performed on the human cloned receptor as described herein.
GPR38 (Motilin Receptor) Functional Assay
A CHO-K1 cell line stably transfected NFAT-beta-lactamase reporter and human motilin receptor gene was used. The cells were cultured in culture medium (Dulbecco's modified eagle medium containing 10% fetal bovine serum, 1 mM sodium pyruvate, 0.1 mM MEM nonessential amino acids, 25 mM HEPES buffer, 50 units/mL penicillin, 50 microg/mL streptomycin, 100 microg/mL zeocin, and 500 microg/mL G418). The cells were harvested with 0.05% trypsin EDTA and centrifuged. The cell pellets were resuspended in the culture medium and plated into a black/clear bottom 384-well plate at a density of 8000 cells per well, then incubated at 37° C. with 5% CO2 for over night (about 20 hours). On the day of assay, the culture medium was aspirated and 20 microL of assay medium (Dulbecco's modified eagle medium containing 100 units/mL penicillin and 100 microg/mL streptomycin) was added to each well, then the cell plates were placed in incubator at 37° C. with 5% CO2 for 1.5 hours. Compounds were prepared in 100% DMSO and these were diluted to 5× of final concentration with assay buffer (Hanks balanced salt solution, 20 mM HEPES, and 0.1% BSA), then dispensed into 384-well plate (5 microL/well). After incubation at 37° C. with 5% CO2 for 4.5 hours, CCF4-AM loading solution (Invitrogen Corp.) was added to each well. After incubation for 2 hours at room temperature, fluorescence intensities were measured by using plate reader FDSS (Hamamatsu Photonics K. K.) with excitation 400 nm, emission 465 nm/540 nm. Agonistic activity (EC50) was calculated from the sigmoidal dose-response curve using GraphPad Prism software (GraphPad Software, Inc.).

T1 sequence (O43193 whole entry): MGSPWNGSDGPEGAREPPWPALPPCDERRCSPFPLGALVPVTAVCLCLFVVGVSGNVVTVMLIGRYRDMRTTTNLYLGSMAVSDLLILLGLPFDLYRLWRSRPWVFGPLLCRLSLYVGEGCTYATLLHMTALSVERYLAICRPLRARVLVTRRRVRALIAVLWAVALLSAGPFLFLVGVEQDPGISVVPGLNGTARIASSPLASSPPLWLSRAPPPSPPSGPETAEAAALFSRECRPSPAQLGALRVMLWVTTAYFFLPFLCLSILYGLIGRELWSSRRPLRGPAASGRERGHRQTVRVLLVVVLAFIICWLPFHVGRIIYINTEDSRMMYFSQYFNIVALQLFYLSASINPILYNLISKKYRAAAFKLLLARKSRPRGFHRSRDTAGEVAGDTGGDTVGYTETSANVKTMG

As usually defined, the pEC50 is the EC50 on a negative log10 scale, so that one unit is a factor of ten. Read a high pEC50 as a low EC50. `CC1(C)C(=O)N(C2CCN(C(=O)[C@H](CCc3ccccc3)NC(=O)NC[C@@H]3CCCCN3)CC2)c2ccccc21` [Example 60, 1-((S)-1-(4-(3,3-dimethyl-2-oxo-indolin-1-yl)piperidin-1-yl)-1-oxo-4-phenylbutan-2-yl)-3-((S)-piperidin-2-ylmethyl)urea]: the pEC50 was not below 8.00.

In the case of `CC1(C)C(=O)N(C2CCN(C(=O)[C@H](CCc3ccccc3)NC(=O)NC[C@@H]3CCCNC3)CC2)c2ccccc21` [Example 61, 1-((S)-1-(4-(3,3-dimethyl-2-oxo-indolin-1-yl)piperidin-1-yl)-1-oxo-4-phenylbutan-2-yl)-3-((R)-piperidin-3-ylmethyl)urea], the pEC50 was not below 8.00. Still for that read-out and setting: the same measure for `CC(C)(N)CNC(=O)N[C@@H](CCc1ccccc1)C(=O)N1CCC(N2C(=O)C(C)(C)c3ccccc32)CC1` [Example 62, (S)-1-(2-amino-2-methylpropyl)-3-(1-(4-(3,3-dimethyl-2-oxoindolin-1-yl)piperidin-1-yl)-1-oxo-4-phenyl-butan-2-yl)urea]: not below 8.00. The same measure, in the same setting: the same measure for `CN(C1CC1)[C@H]1CCN(C(=O)N[C@@H](CCc2ccccc2)C(=O)N2CCC(N3C(=O)C(C)(C)c4ccccc43)CC2)C1` [Example 63, (S)-3-(cyclopropyl(methyl)amino)-N-((S)-1-(4-(3,3-dimethyl-2-oxo-indolin-1-yl)piperidin-1-yl)-1-oxo-4-phenylbutan-2-yl)pyrrolidine-1-carboxamide]: not below 8.00. On the same count and under the same terms, the same measure for `CC1(C)C(=O)N(C2CCN(C(=O)[C@H](CCc3ccccc3)NC(=O)NCCN3CCCC3)CC2)c2ccccc21` [Example 64, (S)-1-(1-(4-(3,3-dimethyl-2-oxo-indolin-1-yl)piperidin-1-yl)-1-oxo-4-phenylbutan-2-yl)-3-(2-(pyrrolidin-1-yl)ethyl)urea]: not below 8.00. Consider `CN(C)CCNC(=O)N[C@@H](CCc1ccccc1)C(=O)N1CCC(N2C(=O)C(C)(C)c3ccccc32)CC1` [Example 65, (S)-1-(1-(4-(3,3-dimethyl-2-oxo-indolin-1-yl)piperidin-1-yl)-1-oxo-4-phenylbutan-2-yl)-3-(2-(dimethyl-amino)ethyl)urea], for which the pEC50 is not below 8.00. `CN(C)[C@H]1CCN(C(=O)N[C@@H](CCc2ccccc2)C(=O)N2CCC(N3C(=O)C(C)(C)c4ccccc43)CC2)C1` [Example 67, (S)—N—((S)-1-(4-(3,3-dimethyl-2-oxoindolin-1-yl)piperidin-1-yl)-1-oxo-4-phenylbutan-2-yl)-3-(dimethylamino)pyrrolidine-1-carboxamide] had a negative logarithm of the EC50 (pEC50) not below 8.00. The same measure, in the same setting: as for `CN1CCC[C@H]1CNC(=O)N[C@@H](CCc1ccccc1)C(=O)N1CCC(N2C(=O)C(C)(C)c3ccccc32)CC1` [Example 68, 1-((S)-1-(4-(3,3-dimethyl-2-oxo-indolin-1-yl)piperidin-1-yl)-1-oxo-4-phenylbutan-2-yl)-3-(((S)-1-methylpyrrolidin-2-yl)methyl)urea], the figure is not below 8.00. The same measure, in the same setting: as for `CN1CCC(C)(NC(=O)N[C@@H](CCc2ccccc2)C(=O)N2CCC(N3C(=O)C(C)(C)c4ccccc43)CC2)CC1` [Example 69, (S)-1-(1-(4-(3,3-dimethyl-2-oxo-indolin-1-yl)piperidin-1-yl)-1-oxo-4-phenylbutan-2-yl)-3-(1,4-dimethylpiperidin-4-yl)urea], the figure is not below 8.00; as for `CN[C@H]1CCN(C(=O)N[C@@H](CCc2ccccc2)C(=O)N2CCC(N3C(=O)C(C)(C)c4cc(F)ccc43)CC2)C1` [Example 70, (S)—N—((S)-1-(4-(5-fluoro-3,3-dimethyl-2-oxoindolin-1-yl)piperidin-1-yl)-1-oxo-4-phenylbutan-2-yl)-3-(methylamino)pyrrolidine-1-carboxamide], not below 8.00; as for `CC1(C)C(=O)N(C2CCN(C(=O)[C@H](CCc3ccccc3)NC(=O)NC[C@@H]3CCCN3)CC2)c2ccc(F)cc21` [Example 71, 1-((S)-1-(4-(5-fluoro-3,3-dimethyl-2-oxoindolin-1-yl)piperldin-1-yl)-1-oxo-4-phenylbutan-2-yl)-3-((S)-pyrrolidin-2-ylmethyl)urea], not below 8.00. The same measure, in the same setting: as for `CC1(NC(=O)N[C@@H](CCc2ccccc2)C(=O)N2CCC(N3C(=O)C(C)(C)c4cc(F)ccc43)CC2)CCNCC1` [Example 72], the figure is not below 8.00. `CC1(C)C(=O)N(C2CCN(C(=O)[C@H](Cc3ccccc3C(F)(F)F)NC(=O)C3CCNCC3)CC2)c2ccccc21` [Example 78, (S)-N-(1-(4-(3,3-dimethyl-2-oxoindolin-1-yl)piperidin-1-yl)-1-oxo-3-(2-(trifluoro-methyl)phenyl)propan-2-yl)piperidine-4-carboxamide] showed a pEC50 not below 8.00. The same measure, in the same setting: as for `CC1(C)C(=O)N(C2CCN(C(=O)[C@H](Cc3ccccc3Cl)NC(=O)C3CCNCC3)CC2)c2ccccc21` [Example 79, (S)-N-(3-(2-chlorophenyl)-1-(4-(3,3-dimethyl-2-oxo-indolin-1-yl)piperidin-1-yl)-1-oxopropan-2-yl) piperidine-4-carboxamide], the figure is not below 8.00. Turning to `CC1(C)C(=O)N(C2CCN(C(=O)[C@H](Cc3ccccc3)NC(=O)[C@@H]3CCCNC3)CC2)c2ccccc21` [Example 82, (R)-N-((S)-1-(4-(3,3-dimethyl-2-oxoindolin-1-yl)piperidin-1-yl)-1-oxo-3-phenylpropan-2-yl) piperidine-3-carboxamide], the pEC50 was not below 8.00. Turning to `CC1(C)C(=O)N(C2CCN(C(=O)[C@H](Cc3ccccc3F)NC(=O)[C@@H]3CCCNC3)CC2)c2ccccc21` [Example 83, (R)-N-((S)-1-(4-(3,3-dimethyl-2-oxoindolin-1-yl)piperidin-1-yl)-3-(2-fluorophenyl)-1-oxo-propan-2-yl)piperidine-3-carboxamide], the pEC50 was not below 8.00. Take `CC1(C)C(=O)N(C2CCN(C(=O)[C@H](Cc3ccccc3C(F)(F)F)NC(=O)[C@@H]3CCCNC3)CC2)c2ccccc21` [Example 85, (R)-N-((S)-1-(4-(3,3-dimethyl-2-oxoindolin-1-yl)piperidin-1-yl)-1-oxo-3-(2-(trifluoromethyl)phenyl)propan-2-yl) piperidine-3-carboxamide]: the pEC50 is not below 8.00. Molecule `CC1(C)C(=O)N(C2CCN(C(=O)[C@H](Cc3ccccc3Cl)NC(=O)[C@@H]3CCCNC3)CC2)c2ccccc21` [Example 86, (R)-N-((S)-3-(2-chloro-phenyl)-1-(4-(3,3-dimethyl-2-oxoindolin-1-yl)piperidin-1-yl)-1-oxo-propan-2-yl)piperidine-3-carboxamide] had a negative logarithm of the EC50 (pEC50) not below 8.00. `CC1(C)C(=O)N(C2CCN(C(=O)[C@H](Cc3ccc(Cl)cc3)NC(=O)[C@@H]3CCCNC3)CC2)c2ccccc21` [Example 87, (R)-N-((S)-3-(4-chloro-phenyl)-1-(4-(3,3-dimethyl-2-oxoindolin-1-yl)piperidin-1-yl)-1-oxopropan-2-yl)piperidine-3-carboxamide] gave a pEC50 not below 8.00. On the same count and under the same terms, the same measure for `CN[C@H]1CCN(C(=O)N[C@@H](Cc2ccccc2C(F)(F)F)C(=O)N2CCC(N3C(=O)C(C)(C)c4ccccc43)CC2)C1` [Example 92, (S)-N-((S)-1-(4-(3,3-dimethyl-2-oxoindolin-1-yl)piperidin-1-yl)-1-oxo-3-(2-(trifluoromethyl)phenyl)propan-2-yl)-3-(methylamino)pyrrolidine-1-carboxamide]: not below 8.00; for `CN[C@H]1CCN(C(=O)N[C@@H](Cc2ccccc2Cl)C(=O)N2CCC(N3C(=O)C(C)(C)c4ccccc43)CC2)C1` [Example 93, (S)-N-((S)-3-(2-chloro-phenyl)-1-(4-(3,3-dimethyl-2-oxoindolin-1-yl)piperidin-1-yl)-1-oxopropan-2-yl)-3-(methylamino)pyrrolidine-1-carboxamide]: not below 8.00. Still for that read-out and setting: the same measure for `CN[C@H]1CCN(C(=O)N[C@@H](Cc2ccc(Cl)cc2)C(=O)N2CCC(N3C(=O)C(C)(C)c4ccccc43)CC2)C1` [Example 94, (S)-N-((S)-3-(4-chloro-phenyl)-1-(4-(3,3-dimethyl-2-oxoindolin-1-yl)piperidin-1-yl)-1-oxopropan-2-yl)-3-(methylamino)pyrrolidine-1-carboxamide]: not below 8.00.

In general, EC50 refers to the concentration that produces a half-maximal response. As to `CC1(C)C(=O)N(C2CCN(C(=O)[C@@H](CCc3ccccc3)NC(=O)[C@@H]3CCCNC3)CC2)c2ccccc21` [Example 98], the EC50 is 6210 nM. In other words, the single-digit micromolar range. Still for that read-out and setting: as for `CN[C@H]1CCN(C(=O)N[C@H](CCc2ccccc2)C(=O)N2CCC(N3C(=O)C(C)(C)c4ccccc43)CC2)C1` [Example 99, (S)—N—((R)-1-(4-(3,3-dimethyl-2-oxoindolin-1-yl)piperidin-1-yl)-1-oxo-4-phenylbutan-2-yl)-3-(methylamino)pyrrolidine-1-carboxamide], the figure is 488 nM.
